Patent publication US20220117938A1, “COMBINATON THERAPY WITH A DON PRODRUG AND AN IMMUNE CHECKPOINT INHIBITOR” (DRACEN PHARMACEUTICALS, INC., priority 2019, published 2022)

Test system: EL4 tumors
Experiment: Anti-tumor efficacy of Compound 1 with and without anti-PD-1 in the subcutaneous EL4 murine lymphoma model (Example 2C)
Assay type: in vivo, Mus musculus
Conditions: for ILS (%) / MST: endpoint tumor volume 2000 mm^3
Method: Female C57BL/6 mice were inoculated subcutaneously at the right flank with EL4 cells for tumor development. Five days after tumor inoculation, 48 mice with tumor size ranging from 50-76 mm^3 (average tumor size 65 mm^3) were selected and assigned into 6 groups using stratified randomization with 8 mice per group based upon their tumor volumes. The treatments were started from the day of randomization (defined as D0), Group 1 was treated with Vehicle (Tween 80:Ethanol:Saline—5:5:90 v/v/v), s.c., qd×4, Group 2 was treated with anti-PD-1 10 mg/kg i.p. q4d×4, Group 3 was treated with Compound 1 0.3 mg/kg s.c. q.d.×14, Group 4 was treated with Compound 1 0.3 mg/kg s.c. q.d.×14+anti-PD-1 10 mg/kg i.p. q4d×4, Group 5 was treated with Compound 1 1 mg/kg s.c. q.d.×14, Group 6 was treated with Compound 1 1 mg/kg s.c. q.d.×14+anti-PD-1 10 mg/kg i.p. q4d×4. The tumor sizes were measured three times per week during the treatment. The entire study was terminated on D19 after start of the treatment.
Animal Species: Mus musculus; Strain: […]; Age: 6-8 weeks; Sex: female; Body weight (at treatment start): 17-22 g.
The EL4 tumor cells were maintained in vitro as a monolayer culture in DMEM medium supplemented with 10% heat inactivated horse serum and 100 μg/mL penicillin streptomycin at 37° C. in an atmosphere of 5% CO2 in air. The tumor cells were routinely subcultured twice weekly by trypsin-EDTA treatment. The cells growing to a confluency around 70%-80% were harvested and counted for tumor inoculation. The cultured EL4 were harvested, re-suspended in base medium at a density of […] with viability>90%. Each mouse was inoculated subcutaneously at the right flank with 2×10^5 in 0.1 ml base medium for tumor development.
The treatments were started on day 5 after tumor inoculation when the tumor size reached 50-76 mm^3 (average tumor size 65 mm^3). Each group consisted of 8 tumor bearing mice. The testing article was administrated at the dosing volume indicated to the mice according to the predetermined regimen as shown Table 2C-1. Testing article formulations were prepared according to standard procedures. Details regarding tumor measurements and endpoints, and statistical analysis are provided in EXAMPLE 3.
Tumor sizes were measured three times a week in two dimensions using a caliper, and the volume expressed in mm^3 using the formula: V=0.5 a×b^2 where a and b are the long and short diameters of the tumor, respectively. The tumor sizes were then used for the calculations of both tumor growth inhibition (TGI) and T/C values.
TGI is calculated for each group using the formula: […]
TVTreatment_DayN is the average tumor volume of a treatment group on a given day, TVTreatment_Day0 is the average tumor volume of the treatment group on the first day of treatment, TVVehicle_DayN is the average tumor volume of the vehicle control group on a given day, and TVVehicle_Day0 is the average tumor volume of the vehicle group on the first day of treatment.
The T/C value (in percent) is an indication of antitumor effectiveness, T/C (%)=RTVTreatment/RTVControl×100% (RTVTreatment: the mean RTV of the treatment group; RTVControl: the mean RTV of the vehicle treated group). RTV (relative tumor volume)=TVDayN/TVDay0. TVDayN and TVDay0 is the tumor volume on day N and Day 0 respectively. T/C (%)≤42% is considered as significant antitumor activity and <10% is considered as highly significant antitumor activity by the National Cancer Institute criteria.
Animal survival curve: When an individual animal reached to the termination endpoint (TV>2000 mm^3), the mouse was euthanized. The time from treatment initiation to the termination was deemed as its survival time. Survival curve was plotted by Kaplan-Meier method. Median survival time (MST) was calculated for each group. Increase of life span (ILS) was calculated according to the following formula: […]
ILS (%)>25% is considered as a biologically significant survival benefit. […]

CC(=O)N[C@@H](Cc1c[nH]c2ccccc12)C(=O)N[C@@H](CCC(=O)C=[N+]=[N-])C(=O)OC(C)C [Compound 1, Isopropyl (S)-2-((S)-2-acetamido-3-(1H-indol-3-yl)propanamido)-6-diazo-5-oxohexanoate]
ILS (%) (Compound 1 0.3 mg/kg): 0%
MST (Compound 1 0.3 mg/kg): 9 days
ILS (%) (Compound 1 1 mg/kg): 35.7%
MST (Compound 1 1 mg/kg): 14 days
RTV at day 7 (Cpd. 1 0.3 mg/kg): 21.9 ± 1.51
RTV at day 7 (Cpd. 1 1 mg/kg): 11.2 ± 1.25
Tumor volume (Mean ± SEM) (Day 0, Cpd. 1 0.3 mg/kg): 65 ± 3 mm^3
Tumor volume (Mean ± SEM) (Day 0, Cpd. 1 1 mg/kg): 65 ± 3 mm^3
Tumor volume (Mean ± SEM) (Day 2, Cpd. 1 0.3 mg/kg): 245 ± 6 mm^3
Tumor volume (Mean ± SEM) (Day 2, Cpd. 1 1 mg/kg): 194 ± 15 mm^3
Tumor volume (Mean ± SEM) (Day 5, Cpd. 1 0.3 mg/kg): 763 ± 29 mm^3
Tumor volume (Mean ± SEM) (Day 5, Cpd. 1 1 mg/kg): 613 ± 62 mm^3
T/C (Day 7, Cpd. 1 0.3 mg/kg): 73.86%
TGI (Day 7, Cpd. 1 0.3 mg/kg): 28.88%
Tumor volume (Mean ± SEM) (Day 7, Cpd. 1 0.3 mg/kg): 1391 ± 41 mm^3
T/C (Day 7, Cpd. 1 1 mg/kg): 37.76%
TGI (Day 7, Cpd. 1 1 mg/kg): 64.42%
Tumor volume (Mean ± SEM) (Day 7, Cpd. 1 1 mg/kg): 728 ± 96 mm^3
